Data taken from ChEMBL document CHEMBL1136041, “Capped dipeptide alpha-ketoacid inhibitors of the HCV NS3 protease” (Bioorg Med Chem Lett, 2002).

Biological target: Hepatitis C virus serine protease, NS3/NS4A (Hepatitis C virus, UniProt A3EZI9+D2K2A8)
Assay: Inhibitory concentration evaluated against NS3/4A protease.
Format: protein-complex assay, Hepacivirus hominis

Sequence of Hepatitis C virus serine protease, NS3/NS4A (D2K2A8 whole entry): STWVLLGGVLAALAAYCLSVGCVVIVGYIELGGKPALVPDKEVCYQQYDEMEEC
Sequence of Hepatitis C virus serine protease, NS3/NS4A (A3EZI9 whole entry): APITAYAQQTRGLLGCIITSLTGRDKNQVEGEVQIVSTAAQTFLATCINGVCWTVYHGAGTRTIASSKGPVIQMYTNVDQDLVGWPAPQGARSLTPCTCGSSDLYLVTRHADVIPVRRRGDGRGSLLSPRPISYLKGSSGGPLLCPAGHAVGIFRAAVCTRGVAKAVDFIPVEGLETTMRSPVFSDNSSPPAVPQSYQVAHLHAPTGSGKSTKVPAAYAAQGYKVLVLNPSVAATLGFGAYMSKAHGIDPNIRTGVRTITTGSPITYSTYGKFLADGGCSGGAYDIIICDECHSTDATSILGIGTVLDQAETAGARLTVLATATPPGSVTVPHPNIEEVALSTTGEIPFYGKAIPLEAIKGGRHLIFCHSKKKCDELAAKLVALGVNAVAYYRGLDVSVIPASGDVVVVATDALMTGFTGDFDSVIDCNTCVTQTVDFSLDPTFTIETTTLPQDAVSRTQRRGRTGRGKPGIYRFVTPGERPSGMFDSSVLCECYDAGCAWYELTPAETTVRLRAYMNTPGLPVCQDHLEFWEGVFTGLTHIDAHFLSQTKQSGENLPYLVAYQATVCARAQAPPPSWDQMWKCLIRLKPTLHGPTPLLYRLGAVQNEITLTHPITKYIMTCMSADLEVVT

| IC50 [µM] | Structure (SMILES) |
| --- | --- |
| 3 | CC(C)C[C@H](NC(=O)[C@H](O)c1ccccc1)C(=O)N[C@@H](CC(F)F)C(=O)C(=O)O |
| 7 | CC(C)C[C@H](NC(=O)[C@H](O)C1CCCCC1)C(=O)N[C@@H](CC(F)F)C(=O)C(=O)O |
| > 30 | CC(C)C[C@H](NC(=O)C(Cc1ccccc1)c1ccccc1)C(=O)N[C@@H](CC(F)F)C(=O)C(=O)O (some centres not stated) |
| 18 | COc1ccc(C(Oc2ccccc2)C(=O)N[C@@H](CC(C)C)C(=O)N[C@@H](CC(F)F)C(=O)C(=O)O)cc1 (some centres not stated) |
| > 100 | CC(C)C[C@H](NC(=O)[C@@H](O)c1ccccc1)C(=O)N[C@@H](CC(F)F)C(=O)C(=O)O |
| 0.38 | CC(C)C[C@H](NC(=O)[C@@H](NC(=O)OC(C)(C)C)C1CCCC1)C(=O)N[C@@H](CC(F)F)C(=O)C(=O)O |
| 18 | CC(C)C[C@H](NC(=O)[C@H](O)c1cccs1)C(=O)N[C@@H](CC(F)F)C(=O)C(=O)O |
| > 200 | CC(C)C[C@H](NC(=O)CC(c1ccccc1)c1ccccc1)C(=O)N[C@@H](CC(F)F)C(=O)C(=O)O |
| > 200 | CC(C)C[C@H](NC(=O)Cn1nc(-c2ccccc2)c2ccccc2c1=O)C(=O)N[C@@H](CC(F)F)C(=O)C(=O)O |
| > 200 | COc1ccc(C(=O)N[C@@H](CC(C)C)C(=O)N[C@@H](CC(F)F)C(=O)C(=O)O)c(OC)c1OC |
| > 200 | CC(C)C[C@H](NC(=O)Cn1c(-c2ccccc2)nc2ccccc21)C(=O)N[C@@H](CC(F)F)C(=O)C(=O)O |
| 41 | CC(C)C[C@H](NC(=O)[C@H](O)c1ccccc1Cl)C(=O)N[C@@H](CC(F)F)C(=O)C(=O)O |
| 28 | CC(C)C[C@H](NC(=O)[C@H](O)c1ccc(C(F)(F)F)cc1)C(=O)N[C@@H](CC(F)F)C(=O)C(=O)O |
| > 200 | CC(C)C[C@H](NC(=O)c1cccc(Oc2ccccc2)c1)C(=O)N[C@@H](CC(F)F)C(=O)C(=O)O |
| 7 | CC(C)C[C@H](NC(=O)C(Sc1ccccc1)c1ccccc1)C(=O)N[C@@H](CC(F)F)C(=O)C(=O)O (some centres not stated) |
| 13 | COc1ccc([C@@H](O)C(=O)N[C@@H](CC(C)C)C(=O)N[C@@H](CC(F)F)C(=O)C(=O)O)cc1 |
| 13 | CC(C)C[C@H](NC(=O)[C@H](O)c1ccc(Cl)cc1)C(=O)N[C@@H](CC(F)F)C(=O)C(=O)O |
